pKd: −log10 of the molar value. Like-named read-outs stand apart in the source and are kept apart here. Where a SMILES comes first, the peptide text is derived from it. Bridges are numbered along the chain shown (N, C = ends). [ ]: non-standard residue; d: D form. The star is where a group is joined. hPhe(3-Cl-4-CF3) = N[C@@H](CCc1ccc(C(F)(F)F)c(Cl)c1)C(=O)O; NPrPhe(4-CF3) = CCCN[C@@H](Cc1ccc(C(F)(F)F)cc1)C(=O)O; NMePhe(4-Me) = CN[C@@H](Cc1ccc(C)cc1)C(=O)O; NMeGly(cPent) = CN[C@H](C(=O)O)C1CCCC1; Hyp = O=C(O)[C@@H]1C[C@@H](O)CN1; NMeD = CN[C@@H](CC(=O)O)C(=O)O; NMeL = CN[C@@H](CC(C)C)C(=O)O; Morpholide = C1CN(*)CCO1; NMeA = CN[C@@H](C)C(=O)O; Ac5c = NC1(C(=O)O)CCCC1; Aze = O=C(O)[C@@H]1CCN1; NEtG = CCNCC(=O)O; Sar = CNCC(=O)O

Test [1] concerns the target GDP-bound HRAS wild-type protein (Homo sapiens, UniProt P01112). The test can be described thus: Binding to HRAS by surface plasmon resonance (SPR), Single Cycle Kinetics. (SPR reads the build-up and loss of mass on a sensor chip optically.)
Test [2] addresses GDP-bound NRAS wild-type protein (Homo sapiens, UniProt P01111). The experiment in a line: Binding to NRAS by surface plasmon resonance (SPR), Single Cycle Kinetics.
Test [3] addresses GDP-bound KRAS wild-type protein (Homo sapiens, UniProt P01116). The experiment in a line: Binding to KRAS by surface plasmon resonance (SPR), Single Cycle Kinetics. As to conditions: GDP-bound KRAS wild-type protein, read-out: KRAS KD.
Where [4] appears, read: SPR, GDP-bound HRAS wild-type protein vs GDP-bound KRAS wild-type protein.
Setting [5] is: SPR, GDP-bound NRAS wild-type protein vs GDP-bound KRAS wild-type protein.
Setting [6] is: SPR Single Cycle Kinetics, 1:1 binding model.

Chain of GDP-bound NRAS wild-type protein (P01111 whole entry): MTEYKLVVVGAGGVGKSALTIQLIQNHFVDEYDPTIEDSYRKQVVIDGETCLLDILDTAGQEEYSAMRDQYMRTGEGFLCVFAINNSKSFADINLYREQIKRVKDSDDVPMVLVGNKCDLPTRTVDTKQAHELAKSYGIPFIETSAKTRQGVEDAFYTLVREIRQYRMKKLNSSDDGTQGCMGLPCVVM
Chain of GDP-bound HRAS wild-type protein (P01112 whole entry): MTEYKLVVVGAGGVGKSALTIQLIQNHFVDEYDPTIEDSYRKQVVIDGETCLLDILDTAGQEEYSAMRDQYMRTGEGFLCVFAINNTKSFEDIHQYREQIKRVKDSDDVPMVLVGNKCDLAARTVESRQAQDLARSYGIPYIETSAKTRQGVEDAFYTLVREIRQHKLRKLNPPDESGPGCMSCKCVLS
Chain of GDP-bound KRAS wild-type protein (P01116 whole entry): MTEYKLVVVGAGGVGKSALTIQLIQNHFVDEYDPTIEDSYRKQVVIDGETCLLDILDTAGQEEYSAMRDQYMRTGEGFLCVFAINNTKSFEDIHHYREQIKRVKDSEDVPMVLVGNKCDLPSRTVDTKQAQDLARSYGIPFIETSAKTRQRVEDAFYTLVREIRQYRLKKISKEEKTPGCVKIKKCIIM

As usually defined, the pKd is the Kd on a negative log10 scale, so that one unit is a factor of ten. As for `CCCN1C(=O)CN(C)C(=O)CN(CC)C(=O)[C@H]([C@@H](C)CC)NC(=O)[C@H](CC(C)C)N(C)C(=O)C[C@@H](C(=O)N2CCOCC2)NC(=O)[C@H](C2CCCC2)N(C)C(=O)C2(CCCC2)NC(=O)[C@@H]2C[C@@H](OCC)CN2C(=O)[C@H](CCc2ccc(C(F)(F)F)c(Cl)c2)NC(=O)CN(C)C(=O)[C@@H]1Cc1ccc(C(F)(F)F)cc1` [PP0335] ([NMeL]I[NEtG][Sar][NPrPhe(4-CF3)][Sar][hPhe(3-Cl-4-CF3)][Hyp](Et)[Ac5c][NMeGly(cPent)]D-Morpholide; lactam N-11), the “HRAS/KRAS (ratio of KD value for HRAS to KD value for KRAS)” value in test [1] (setting [4]) is “C (A compound having a KD ratio of 0.1 or more and less than 3 is denoted as C)”. Further, the “NRAS/KRAS (ratio of KD value for NRAS to KD value for KRAS)” value in test [2] (setting [5]) is “B (a compound having 3 or more and less than 10 is denoted as B)”. The pKd in test [3] (setting [6]) is 8.89.

Consider `CCC(CC)[C@H]1C(=O)N(C)[C@H](C(=O)N(C)C)CC(=O)N(C)[C@@H](COC)C(=O)N[C@@H]([C@@H](C)CC)C(=O)N(C)CC(=O)N(C)[C@H]2C/C=C\CCN(C2=O)[C@@H](Cc2ccc(C)cc2)C(=O)N(C)CC(=O)N[C@@H](CCc2cc(F)c(C(F)(F)F)c(F)c2)C(=O)N2CC3(CC3)C[C@H]2C(=O)NC2(CC(C)(C)C2)C(=O)N1C` [PP2963], for which the “HRAS/KRAS (ratio of KD value with respect to GDP-bound HRAS wild-type protein to KD value with respect to KRAS)” value in test [1] (SPR KD ratio HRAS/KRAS, class symbols) is “A (a compound having 10 or more and less than 20 is denoted as A)”. The “NRAS/KRAS (ratio of KD value with respect to GDP-bound NRAS wild-type protein to KD value with respect to KRAS)” value in test [2] (SPR KD ratio NRAS/KRAS, class symbols) is given as “AA (a compound having 20 or more is denoted as AA)”. The pKd in test [3] (setting [6]) was 9.41.

In the case of `CC[C@H](C)[C@@H]1NC(=O)[C@H](CC(C)C)N(C)C(=O)C[C@@H](C(=O)N2CCOCC2)N(C)C(=O)[C@H](C2CCCC2)N(C)C(=O)C2(CCCC2)NC(=O)[C@@H]2CCCN2C(=O)[C@H](CCc2ccc(C(F)(F)F)c(Cl)c2)NC(=O)CN(C)C(=O)[C@H](Cc2ccc(C)cc2)N(C)C(=O)[C@@H]2CCN2C(=O)[C@H](C)N(C)C1=O` [PP0001] ([NMeL]I[NMeA][Aze][NMePhe(4-Me)][Sar][hPhe(3-Cl-4-CF3)]P[Ac5c][NMeGly(cPent)][NMeD]-Morpholide; lactam N-11), in test [1] (setting [4]), the “HRAS/KRAS (ratio of KD value for HRAS to KD value for KRAS)” value is “C (A compound having a KD ratio of 0.1 or more and less than 3 is denoted as C)”. Moreover, in test [2] (setting [5]), the “NRAS/KRAS (ratio of KD value for NRAS to KD value for KRAS)” value was “C (A compound having a KD ratio of 0.1 or more and less than 3 is denoted as C)”. Moreover, the pKd in test [3] (setting [6]) is 9.85.

With `CC[C@H](C)[C@@H]1NC(=O)[C@H](CC(C)C)N(C)C(=O)C[C@@H](C(=O)N(C)C)N(C)C(=O)[C@H](C2CCCC2)N(C)C(=O)C2(CCC2)NC(=O)[C@@H]2CCCN2C(=O)[C@H](CCc2cc(F)c(C(F)(F)F)c(F)c2)NC(=O)CN(C)C(=O)[C@H](Cc2ccc(C(F)(F)F)cc2)N2CCCCC[C@@H](C2=O)N(C)C(=O)CN(C)C1=O` [PP0512], the “HRAS/KRAS (ratio of KD value with respect to HRAS to KD value with respect to KRAS)” value in test [1] (setting [4]) is “B (a compound having 3 or more and less than 10 is denoted as B)”. Further, the “NRAS/KRAS (ratio of KD value with respect to NRAS to KD value with respect to KRAS)” value in test [2] (setting [5]) is “B (a compound having 3 or more and less than 10 is denoted as B)”. The pKd in test [3] (setting [6]) was 9.43.

As for `CC[C@H](C)[C@@H]1NC(=O)[C@H](COC)N(C)C(=O)C[C@@H](C(=O)N2CCOCC2)N(C)C(=O)[C@H](C2CCCC2)N(C)C(=O)C2(CCC2)NC(=O)[C@@H]2C[C@H](OC)CN2C(=O)[C@H](CCc2cc(F)c(C(F)(F)F)c(F)c2)NC(=O)CN(C)C(=O)[C@H](Cc2ccc(C(F)(F)F)cc2)N2CCCCC[C@@H](C2=O)N(C)C(=O)CN(C)C1=O` [PP0836], the “HRAS/KRAS (ratio of KD value for HRAS to KD value for KRAS)” value in test [1] (setting [4]) was “B (a compound having 3 or more and less than 10 is denoted as B)”. Moreover, in test [2] (setting [5]), the “NRAS/KRAS (ratio of KD value for NRAS to KD value for KRAS)” value is “B (a compound having 3 or more and less than 10 is denoted as B)”. Moreover, the pKd in test [3] (SPR, Single Cycle Kinetics) was 9.20.

As for `CCO[C@@H]1C[C@H]2C(=O)NC3(CCC3)C(=O)N(C)[C@@H](C3CCCC3)C(=O)N(CCC3CCCC3)[C@H](C(=O)N3CCOCC3)CC(=O)N(C)[C@@H](CC)C(=O)N[C@@H]([C@@H](C)CC)C(=O)N(C)CC(=O)N(C)[C@H]3C/C=C\CCN(C3=O)[C@@H](Cc3ccc(C(F)(F)F)cc3)C(=O)N(C)CC(=O)N[C@@H](CCc3cc(F)c(C(F)(F)F)c(F)c3)C(=O)N2C1` [PP0981], the “HRAS/KRAS (ratio of KD value for HRAS to KD value for KRAS)” value in test [1] (setting [4]) was “A (a compound having 10 or more and less than 20 is denoted as A)”. The “NRAS/KRAS (ratio of KD value for NRAS to KD value for KRAS)” value in test [2] (setting [5]) was “AA (a compound having 20 or more is denoted as AA)”. The pKd in test [3] (SPR, Single Cycle Kinetics) was 7.96.

The values above are taken from patent US20240158446A1, “CYCLIC COMPOUND HAVING SELECTIVE INHIBITORY ACTION ON KRAS OVER HRAS AND NRAS” (CHUGAI SEIYAKU KABUSHIKI KAISHA, priority 2021, published 2024).
